Measurements from patent publication US20050042701A1, “Anti-petasin antibodies, methods for the production thereof and their use” (priority 1998, published 2005).
Where two headings read alike, the source gives them in different places.

Test: 1st phase clinical test: pharmacokinetics of petasin in serum after single oral administration of tablets containing butterbur extract (open crossover; enzyme immunoassay)
Assay type: in vivo, human (clinically healthy men)
Conditions: for AUCRest: single oral, mean ± SD; for Petasin serum concentration Mean / concentration at 0 h: 0 h p.a.; for concentration at 0 h / concentration at 0.25 h / concentration at 0.5 h / concentration at 0.75 h / concentration at 1 h / concentration at 1.17 h / concentration at 1.5 h / concentration at 1.833 h / concentration at 2.167 h / concentration at 2.5 h / concentration at 3 h / concentration at 4 h / concentration at 5 h / concentration at 6 h / concentration at 8 h / concentration at 12 h / concentration at 24 h: male, human, serum, oral; for concentration at 0.25 h: 0.25 h p.a.; for concentration at 0.5 h: 0.5 h p.a.; for concentration at 0.75 h: 0.75 h p.a.; for concentration at 1 h: 1 h p.a.; for concentration at 1.17 h: 1.17 h p.a.; for concentration at 1.5 h: 1.5 h p.a.; for concentration at 1.833 h: 1.833 h p.a.; for concentration at 2.167 h: 2.167 h p.a.; for concentration at 2.5 h: 2.5 h p.a.; for concentration at 4 h: 4 h p.a.; for concentration at 5 h: 5 h p.a.; for concentration at 6 h: 6 h p.a.; for concentration at 8 h: 8 h p.a.; for concentration at 12 h: 12 h p.a.; for concentration at 24 h: 24 h p.a.
Experimental: Petasin ovalbumin is adsorptively bound to polystyrene microtitration plates in a concentration of […] in 0.1 M carbonate buffer, pH=9.5, (100 μl/well) for 16 hours at 4° C. and thereupon sucked off. After washing it two times with 300 μl/well washing buffer (PBS, 0.1% Tween 20) it is blocked for 2 hours at room temperature with 150 μl/well blocking solution (0.6% gelatine, 0.02% […] in PBS) and subsequently washed three times with washing buffer.
50 μl of the serum sample to be tested or the respective standard (1:4 dilution in a sample buffer (PBS, 1% BSA, 0.1% Tween 20, 0.01% thiomersal) and 50 μL of an optimized anti-serum dilution in a sample buffer are simultaneously incubated with shaking for 1 hour at room temperature. Subsequently, the microtitration plate is washed three times with 300 μl/well of washing buffer and incubated for 30 min. at room temperature with 100 μl of anti-rabbit immunoglobulin peroxidase conjugate, diluted in sample buffer, and once more washed as above. Thereupon, it is incubated for 10 min. with 100 μl of a substrate solution ready for use (3.3′, 5.5′-tetramethyl benzidine) per well and the reaction is stopped by adding 100 μl/well of 0.5 M sulfuric acid. The evaluation is carried out at 450 nm in a microtitration plate reader.
In a 1st phase of the clinical test for determining the pharmacokinetic parameters of tablets containing butterbur extract was a single oral administrations of 2 or 4 tablets to 24 clinically healthy men at the age between 18 and 40 years.
The open, crossover test was chosen as method, single administration of each dose in a randomized order with an interval of at least 7 days between the administrations.
Model-independent pharmacokinetic parameters for petasin Statistical methods:
ANOVA, ANOVAlog, Wilcoxon-Mann-Whitney test, Wilcoxon-sign order test

[1] = 2 tablets, after administering 2 tablets, read-out: Petasin serum concentration Max.
[2] = 2 tablets, after administering 2 tablets, read-out: Petasin serum concentration Mean
[3] = 2 tablets, after administering 2 tablets, read-out: Petasin serum concentration Min.
[4] = 2 tablets, after administering 2 tablets, read-out: Petasin serum concentration Median

With `C=C(C)C1CC2(C)C(=CC1=O)CCC(OC(=O)/C(C)=C\C)C2C` (centres unmarked) [petasin] the AUCRest (2 tablets) was 18.3 ± 7.9%, the “Dose dependence of Cmax and AUC” value (2 versus 4 tablets) was “nearly proportional to the dose” and the “Medium maximum petasin concentration (Cmax) after double the dose” value (4 tablets versus 2 tablets) was “nearly doubled”. For the same compound, the “Medium time of reaching the maximum serum level (tmax) after double the dose” value (4 tablets versus 2 tablets) was “remains constant”, the AUCRest (4 tablets) was 10.8 ± 4.9% and the “Petasin serum concentration Mean” value (after administering 4 tablets) was less than 1 ng/mL. The “Petasin serum concentration Mean” value (after administering 4 tablets, listed as Petasin) was 0.0 ng/mL, the “Petasin serum concentration Max.” value (after administering 4 tablets, 3 h p.a.) was 49.0 ng/mL and the concentration at 0 h [1] was 0 ng/mL. For the same compound, the concentration at 0 h [2] was 0 ng/mL, the concentration at 0 h [3] was 0 ng/mL and the concentration at 0.25 h [1] was 5.5 ng/mL. It also gave a concentration at 0.25 h [2] of 2.8 ng/mL, a concentration at 0.25 h [4] of 2.2 ng/mL and a concentration at 0.25 h [3] of 1.1 ng/mL. It also gave a concentration at 0.5 h [1] of 23.3 ng/mL, a concentration at 0.5 h [2] of 7.6 ng/mL and a concentration at 0.5 h [4] of 5.9 ng/mL. It also gave a concentration at 0.5 h [3] of 1.5 ng/mL, a concentration at 0.75 h [1] of 23.8 ng/mL and a concentration at 0.75 h [2] of 11.9 ng/mL. For the same compound, the concentration at 0.75 h [4] was 11 ng/mL, the concentration at 0.75 h [3] was 4 ng/mL and the concentration at 1 h [1] was 29.3 ng/mL. It also gave a concentration at 1 h [2] of 15.6 ng/mL, a concentration at 1 h [4] of 14.7 ng/mL and a concentration at 1 h [3] of 4 ng/mL. The concentration at 1.17 h [1] was 62.9 ng/mL, the concentration at 1.17 h [2] was 21 ng/mL and the concentration at 1.17 h [4] was 15.3 ng/mL. It also gave a concentration at 1.17 h [3] of 5.6 ng/mL, a concentration at 1.5 h [1] of 47.3 ng/mL and a concentration at 1.5 h [2] of 19.3 ng/mL. The concentration at 1.5 h [4] was 16.1 ng/mL, the concentration at 1.5 h [3] was 5.1 ng/mL and the concentration at 1.833 h [1] was 44.3 ng/mL. The concentration at 1.833 h [2] was 18.2 ng/mL, the concentration at 1.833 h [4] was 14.7 ng/mL and the concentration at 1.833 h [3] was 7.8 ng/mL. For the same compound, the concentration at 2.167 h [1] was 31.7 ng/mL, the concentration at 2.167 h [2] was 16.3 ng/mL and the concentration at 2.167 h [4] was 14.5 ng/mL. It also gave a concentration at 2.167 h [3] of 7.3 ng/mL, a concentration at 2.5 h [1] of 26.6 ng/mL and a concentration at 2.5 h [2] of 13.6 ng/mL. It also gave a concentration at 2.5 h [4] of 10.2 ng/mL, a concentration at 2.5 h [3] of 5.9 ng/mL and a concentration at 3 h (2 tablets, after administering 2 tablets, 3 h p.a., read-out: Petasin serum concentration Max.) of 18.3 ng/mL. For the same compound, the concentration at 3 h (2 tablets, after administering 2 tablets, 3 h p.a., read-out: Petasin serum concentration Mean) was 8.8 ng/mL, the concentration at 3 h (2 tablets, after administering 2 tablets, 3 h p.a., read-out: Petasin serum concentration Median) was 7.7 ng/mL and the concentration at 3 h (2 tablets, after administering 2 tablets, 3 h p.a., read-out: Petasin serum concentration Min.) was 3.1 ng/mL. For the same compound, the concentration at 4 h [1] was 11.2 ng/mL, the concentration at 4 h [2] was 4.5 ng/mL and the concentration at 4 h [4] was 5.2 ng/mL. The concentration at 4 h [3] was 1.7 ng/mL, the concentration at 5 h [1] was 8.8 ng/mL and the concentration at 5 h [2] was 4.1 ng/mL. For the same compound, the concentration at 5 h [4] was 3.4 ng/mL, the concentration at 5 h [3] was 1.5 ng/mL and the concentration at 6 h [1] was 8.1 ng/mL. It also gave a concentration at 6 h [2] of 3.2 ng/mL, a concentration at 6 h [4] of 3.1 ng/mL and a concentration at 6 h [3] of 1.2 ng/mL. For the same compound, the concentration at 8 h [1] was 4.2 ng/mL, the concentration at 8 h [2] was 1.9 ng/mL and the concentration at 8 h [4] was 1.6 ng/mL. It also gave a concentration at 8 h [3] of 1 ng/mL, a concentration at 12 h [1] of 2.9 ng/mL and a concentration at 12 h [2] of 1.6 ng/mL. The concentration at 12 h [4] was 1.4 ng/mL, the concentration at 12 h [3] was 1.1 ng/mL and the concentration at 24 h [1] was 2.3 ng/mL. The concentration at 24 h [2] was 1.5 ng/mL, the concentration at 24 h [4] was 1.3 ng/mL and the concentration at 24 h [3] was 1.1 ng/mL. It also gave a concentration at 0 h (4 tablets, after administering 4 tablets, read-out: Petasin serum concentration Max.) of 0 ng/mL and a concentration at 0 h (4 tablets, after administering 4 tablets, read-out: Petasin serum concentration Median) of less than 1 ng/mL.
